In patent publication US12485075B2, “Particulates of polyphenolics and dispersions thereof” (priority 2020, dated 2025):

Tests used:
[1] = cited from earlier work
human skin explants [2] = assay: Intracellular ROS scavenging activity assay, solar simulated UVA/UVB exposure; type: cell-based
Procedure: Intracellular Reactive Oxygen Species (ROS) Scavenging Activity Assays were conducted on human skin explants from donors of skin Phototype II. The skin explants were treated with, a non-fluorescent probe, 2′, 7′-Dichlorofluorescein diacetate (DCFHDA). After treatment, the skin explants were treated with the moisturizer compositions at a dose of 2 mg/cm^2 and exposed to solar simulated UVA/UVB at doses of 70 mJ/cm^2 in triplicate. DCFH-DA is taken up by cells by passive diffusion and DCFH-DA is deacetylated by cellular esterases to non-fluorescent DCFH, which is trapped within cells. The fluorescent 2′, 7′-dichlorofluorescein (DCF) is generated upon enzymatic reduction and subsequent oxidation by ROS. Fluorescence was measured and correlates to the test item's ability to scavenge ROS. The results are presented as percentage reduction of ROS relative to the level generated following UVA/UVB exposure of unprotected skin. The results of these studies are shown in the Table below and presented as percentage reduction in intracellular ROS relative to unprotected skin. […] These associated skin protective effects include but are not limited to suppressing lipid peroxidation in the skin, preventing or reducing the appearance of lines and wrinkles in skin, preventing loss of elasticity of skin, preventing thinning of skin, and preventing pigment darkening of skin.

human skin explants [3] = assay: Intracellular ROS scavenging activity assay, HEV exposure; type: cell-based; settings: HEV exposure 412 nm and 450 nm
Procedure: Intracellular Reactive Oxygen Species (ROS) Scavenging Activity Assays were conducted on human skin explants from donors of skin Phototype II. The skin explants were treated with, a non-fluorescent probe, 2′, 7′-Dichlorofluorescein diacetate (DCFHDA). […] DCFH-DA is taken up by cells by passive diffusion and DCFH-DA is deacetylated by cellular esterases to non-fluorescent DCFH, which is trapped within cells. The fluorescent 2′, 7′-dichlorofluorescein (DCF) is generated upon enzymatic reduction and subsequent oxidation by ROS. Fluorescence was measured and correlates to the test item's ability to scavenge ROS. The results are presented as percentage reduction of ROS relative to the level generated following UVA/UVB exposure of unprotected skin.

Row | SMILES | solubility in bulk oils, such as soybean oil [1] | reduction in ROS, result in words (human skin explants [2]) | reduction in ROS, result in words (human skin explants [3])
1 | C[C@@H]1O[C@@H](OC[C@H]2O[C@@H](Oc3c(-c4ccc(O)c(O)c4)oc4cc(O)cc(O)c4c3=O)[C@H](O)[C@@H](O)[C@@H]2O)[C@H](O)[C@H](O)[C@H]1O [Rutin, quercetin-3-O-rutinoside] | 0.1 % by weigh | – | –
2 | Cc1c(C)c2c(c(C)c1O)CCC(C)(CCCC(C)CCCC(C)CCCC(C)C)O2 (racemic) [DL-alpha-tocopherol] | – | statistically significant reduction in ROS | no statistically significant reduction in ROS
